Test system: CLMB-FLAG S-acylation in HEK293 Flp-In TReX cells
Experiment: Metabolic pulse-chase labeling assay of dynamic CLMB S-acylation
Format: cell-based
Settings: 30-min chase

## CCCCCCCCCC[C@@H]1C(=O)O[C@H]1CCc1ccc(OC)c(OC)c1 [PalmB, palmostatin B]
  increase of palmitate incorporation into CLMB (17-ODYA to L-AHA ratio), PalmB vs DMSO: ~ 3 fold
